# Data published in US20240417688A1, “METHODS AND SYSTEMS FOR ADIPOCYTES DIFFERENTIATION” (priority 2021, published 2024).
# Test system: Mesenchymal Stem cells (MSCs)
# Assay: Oil Red O staining and quantification of adipogenic differentiation of MSCs in 2D culture
# Format: cell-based
# Conditions: FIG. 3; plate reader
# Method: Palmitoleic, erusic, elaidic, and oleic acids are diluted to 20 mM concentration in ethanol absolute. Each FFA is prepared separately, following which, all […] FFAs are mixed together at equal volumes to create the FFA stock mix.
# The stock mix is then added to cell growth medium at a concentration of 100 uM per FFA (dilution of 1:50 from stock mix).
# Food grade sunflower lecithin is suspended in PBS 1× at 50 mg/ml concentration, and the suspension is sonicated at medium speed for 1-2 min, to then reach a homogenized solution then filtered through a 0.22 μm filter. The lecithin emulsion is added to cell growth medium at a concentration of 1 mg/ml (dilution of 1:50 from stock solution).
# The two mediums were refreshed every 3 days and Oil red O quantification was performed on day 8 of contact.
# It is noted, that high cell density can cause a curling effect that produced a cell aggregate, reveling underlying cells. A. (negative control culture)—The cell aggregate falsely stained by ORO (A2); the aggregation reviles few cells on the surface of the well (A1). B. (4FFAs+Insulin treatment) Cells produce a sheet that detaches from the surface (B1), with underlying differentiating cells (B3). C. […]
# Turning now to FIG. 3, where Oil Red O (ORO) quantification was carried out after extraction using 2-propanol. ORO was extracted and quantified by absorption reading in a plate reader at 492 nm. […]
substance,measurement,value
insulin,"Oil Red O (ORO) quantity, absorption at 492 nm after 2-propanol extraction, versus control",no statistical difference than control
